# Key:
# [1] = system: QT interval; settings: electrocardiography in rats; cited from earlier work
# [2] = system: NeuN-, S100β- and IBA-1-immunopositive cells; assay: Immunohistochemistry with stereological count of cortical and hippocampal cells; type: in vivo, rat; settings: chronic 0.3 mg/kg × 7 sc, 72 h, vs control
# Protocol: Animals received single or multiple (once per day for seven days) subcutaneous injections of 25I-NBOMe dissolved in 0.9% NaCl at a dose of 0.3 mg/kg/2 ml. The control group was treated with 0.9% NaCl solution in the same way. All procedures were performed 72 h after the last injection. The time point of 72 h was chosen due to the possible generation of neurotoxicity via oxidative stress caused by reactive oxygen species (ROS). Exceptionally, for initial 25I-NBOMe brain distribution studies, rats received the drug in the dose of 1 and 10 mg/kg and were sacrificed 15 min after the drug administration. The rat blood plasma and brain tissues were collected immediately after rats’ decapitation. LSD (0.05 mg/kg, ip) was given daily for 7 days in a volume of 1 ml/kg, while MDMA 5 mg/kg, ip was injected in a volume of 2 ml/kg every second day (overall 4 injections).
# Animals were deeply anesthetized and transcardially perfused with 0.9% NaCl followed by 4% paraformaldehyde (PFA) in 0.1 M phosphate-buffered saline (PBS). After 24 h of fixation in 4% PFA (4 °C), 300 µm sections were cut through the frontal cortex (FC) and medial prefrontal cortex (mPFC) as well as hippocampus using a VT-1000S vibratome (Leica Microsystems, Heidelberg, Germany). Free-floating sections were processed for single staining of neurons with neuronal-specific nuclear protein (NeuN), glia with specific calcium-binding protein B (S100β), and microglia cells with ionized calcium-binding adaptor molecule 1 (IBA-1) antibodies. Subsequently, brain sections were rinsed and incubated for 1 h in a blocking buffer: 0.01 M PBS containing 0.3% Triton X-100 and 5% average horse, goat, or rabbit serum. After that, the sections were incubated for 48 h at 4 °C with one of the following primary antibodies: monoclonal anti-NeuN (1:1000), monoclonal anti-S100β-subunit (1:1000) or polyclonal IBA-1 (1:500) diluted in 0.01 M PBS containing 0.3% Triton X-100 (PBST) and 3% average horse or goat serum. Primary antibody binding was visualized with biotinylated secondary antibodies, the Avidin/Biotin Complex (Vectastain Elite ABC Kit) according to recommended by manufacturer concentration and 3,3′-diaminobenzidine tetrahydrochloride (DAB, 10 mg/50 ml and 0.025% H2O2) solution to give a brown color to NeuN, S100β and IBA-1-immunoreactive cells. For data presentation, digital images were captured using a digital camera CX 9000 (Bioscience Microbrightfield, Inc., Germany) attached to a Leica microscope (CTR 6000) with 2.5 and 5.0 dry or 63 × and 100 × oil objectives (Leica) that was controlled by Stereo Investigator software (v.8.10.2, 1995–2007 Bioscience Microbrightfield, Inc., Germany). The final photomicrographs were composed using the Adobe Photoshop program. The numbers of NeuN-, S100β- and IBA-1-immunopositive cells in the analyzed brain regions were estimated using unbiased stereological methods[35],[36]. Briefly, every sixth section from the systematic random sampling along the rostrocaudal axis was analyzed with a 63 ×/1.4–0.7 lens using the Stereo Investigator stereology system software. The cells appearing in the upper focal plane were omitted to prevent the counting of cell caps (− 5 μm of the topmost surface of the section). Immunopositive cells were marked when they were within the optical dissectors, which comprised a focal plane of 1600 μm^2 × 15 μm. The total numbers of NeuN, S100β- and IBA-1-immunopositive cells in the FC, mPFC, and hippocampus were automatically calculated by the Stereo Investigator software. In addition, the volume of the cortical regions and hippocampus was calculated using the Cavalieri Estimator option of the Stereo Investigator software.
# [3] = medial prefrontal cortex (mPFC)
compound,measurement,setting,value
"COc1cc(CCNCc2ccccc2OC)c(OC)cc1I [25I-NBOMe, 4-Iodo-2,5-dimethoxy-N-(2-methoxybenzyl)phenethylamine]",QT interval,[1],prolonged
same,Number of IBA-1-immunopositive cells (microglia),[2]; frontal cortex (FC),significantly decreased
same,Number of NeuN cells (neurons),[2]; frontal cortex (FC),did not notice any significant change
same,Number of S100β-immunopositive cells (astrocytes),[2]; frontal cortex (FC),significantly decreased
same,Number of neuronal and glial cells,"[2]; hippocampal regions CA1, CA3/CA2 and dentate gyrus",did not show any changes
same,Number of NeuN cells (neurons),[2]; [3],did not notice any significant change
same,Number of S100β-immunopositive cells (astrocytes),[2]; [3],significant decrease

# Source: article PMC8861095, “Neurotoxicological profile of the hallucinogenic compound 25I-NBOMe” (Scientific Reports, 2022)
